The text below walks through data of US20220153754A1 (JANSSEN SCIENCES IRELAND UNLIMITED COMPANY, priority 2019, published 2022).

This assay has as its system HBV. Description: HBV replication inhibition assay (BDNA assay). It counts as cell-based. The conditions noted are these: Hepatitis B virus, HepG2.2.15, 144 h, HepG2.2.15 cells, incubated with compound for 6 days, encapsidated HBV DNA from supernatant detected by branched DNA QuantiGene assay. Here is the method: HBV replication inhibition by the disclosed compounds were determined in cells infected or transfected with HBV or cells with stably integrated HBV, such as HepG2.2.15 cells (Sells et al. 1987). In this example, HepG2.2.15 cells were maintained in cell culture medium containing 10% fetal bovine serum (FBS), Geneticin, L-glutamine, penicillin and streptomycin. HepG2.2.15 cells were seeded in 96-well plates at a density of 40,000 cells/well and were treated with serially diluted compounds at a final DMSO concentration of 0.5% either alone or in combination by adding drugs in a checker box format. Cells were incubated with compounds for three days, after which medium was removed and fresh medium containing compounds was added to cells and incubated for another three days. At day 6, supernatant was removed and treated with DNase at 37° C. for 60 minutes, followed by enzyme inactivation at 75° C. for 15 minutes. Encapsidated HBV DNA was released from the virions and covalently linked HBV polymerase by incubating in lysis buffer (Affymetrix QS0010) containing 2.5 μg proteinase K at 50° C. for 40 minutes. HBV DNA was denatured by addition of 0.2 M NaOH and detected using a branched DNA (BDNA) QuantiGene assay kit according to manufacturer recommendation (Affymetrix). HBV DNA levels were also quantified using qPCR, based on amplification of encapsidated HBV DNA extraction with QuickExtraction Solution (Epicentre Biotechnologies) and amplification of HBV DNA using HBV specific PCR probes that can hybridize to HBV DNA and a fluorescently labeled probe for quantitation. In addition, cell viability of HepG2.2.15 cells incubated with test compounds alone or in combination was determined by using CellTitre-Glo reagent according to the manufacturer protocol (Promega). The mean background signal from wells containing only culture medium was subtracted from all other samples, and percent inhibition at each compound concentration was calculated by normalizing to signals from HepG2.2.15 cells treated with 0.5% DMSO using equation E1.
where DMSOave is the mean signal calculated from the wells that were treated with DMSO control (0% inhibition control) and Xi is the signal measured from the individual wells. EC50 values, effective concentrations that achieved 50% inhibitory effect, were determined by non-linear fitting using Graphpad Prism software (San Diego, Calif.) and equation E2.
where Y represents percent inhibition values and X represents the logarithm of compound concentrations.
Selected disclosed compounds were assayed in the HBV replication assay (BDNA assay), as described above, and a representative group of these active compounds is shown in Table 3.

Each structure is given as a SMILES string.

Regarding `O=C(Nc1ccc(F)c(Cl)c1)N1CCc2nn3c(c2C1)-c1nncn1CCC3` [Example 20, N-(3-Chloro-4-fluorophenyl)-6,7,10,11-tetrahydro-5H-pyrido[4′,3′:3,4]-pyrazolo[1,5-a][1,2,4]triazolo[3,4-c][1,4]diazepine-12(13H)-carboxamide], the EC50 turned out to be 2000 nM.
Regarding `Cc1nnc2n1CCCn1nc3c(c1-2)CN(C(=O)Nc1ccc(F)c(Cl)c1)CC3` [Example 21, N-(3-Chloro-4-fluorophenyl)-3-methyl-6,7,10,11-tetrahydro-5H-pyrido-[4′,3′:3,4]pyrazolo[1,5-a][1,2,4]triazolo[3,4-c][1,4]diazepine-12(13H)-carboxamide], the concentration for a half-maximal effect (EC50) was 2700 nM.
On to `O=C(Nc1ccc(F)c(C(F)(F)F)c1)N1CCc2nn3c(c2C1)-c1ncccc1CCC3` [Example 28, N-(4-Fluoro-3-(trifluoromethyl)phenyl)-6,7,10,11-tetrahydro-5H-pyrido[2,3-c]pyrido[4′,3′:3,4]pyrazolo[1,5-a]azepine-12(13H)-carboxamide], for which the concentration for a half-maximal effect (EC50) was found to be 1800 nM.
The same measure for `N#Cc1cc(NC(=O)N2CCc3nn4c(c3C2)-c2nnccc2CCC4)ccc1F` [Example 24, N-(3-Cyano-4-fluorophenyl)-6,7,10,11-tetrahydro-5H-pyridazino[3,4-c]pyrido[4′,3′:3,4]pyrazolo[1,5-a]azepine-12(13H)-carboxamide]: 910 nM; for `Cn1ncc2c1-c1c3c(nn1CCC2)CCN(C(=O)Nc1ccc(F)c(Cl)c1)C3` [Example 30, N-(3-Chloro-4-fluorophenyl)-1-methyl-4,5,6,9,10,12-hexahydropyrazolo[3,4-c]pyrido[4′3′:3,4]pyrazolo[1,5-a]azepine-11(1H)-carboxamide]: 3400 nM; for `Cc1nnc2n1CCCn1nc3c(c1-2)CN(C(=O)Nc1ccc(F)c(Cl)c1)[C@H](C)C3` [Example 23]: above 4000 nM.
On to `O=C(Nc1ccc(F)c(C(F)(F)F)c1)N1CCc2nn3c(c2C1)-c1nocc1CC(COCC(F)F)C3` (single isomer, unassigned) [Example 6, (5S*)-5-((2,2-Difluoroethoxy)methyl)-N-(4-fluoro-3-(trifluoromethyl)phenyl)-5,6,9,10-tetrahydro-4H-isoxazolo[3,4-c]pyrido[4′,3′:3,4]pyrazolo[1,5-a]azepine-11(12H)-carboxamide], for which the concentration for a half-maximal effect (EC50) was determined as 45 nM.
Under `C[C@@H]1Cc2nn3c(c2CN1C(=O)Nc1ccc(F)c(C(F)(F)F)c1)-c1ncccc1CCC3` [Example 17, (11R)—N-(4-Fluoro-3-(trifluoromethyl)phenyl)-11-methyl-6,7,10,11-tetrahydro-5H-pyrido[2,3-c]pyrido[4′,3′:3,4]pyrazolo[1,5-a]azepine-12(13H)-carboxamide] stands 220 nM; under `N#Cc1cc(NC(=O)N2CCn3nc4c(c3C2)-c2nocc2CCC4)ccc1F` [Example 35, N-(3-Cyano-4-fluorophenyl)-5,6,9,10-tetrahydro-4H-isoxazolo[3″,4″:3′,4′]-cyclohepta[1′,2′:3,4]pyrazolo[1,5-a]pyrazine-11(12H)-carboxamide], 170 nM; under `C[C@@H]1Cc2nn3c(c2CN1C(=O)Nc1ccc(F)c(C#N)c1)-c1nocc1CCC3` [Example 18, (10R)—N-(3-Cyano-4-fluorophenyl)-10-methyl-5,6,9,10-tetrahydro-4H-isoxazolo[3,4-c]pyrido[4′,3′:3,4]pyrazolo[1,5-a]azepine-11(12H)-carboxamide], 15 nM.
The same measure for `O=C(Nc1ccc(F)c(Cl)c1)N1CCc2nn3c(c2C1)-c1nocc1CCC3` [Example 31, N-(3-Chloro-4-fluorophenyl)-5,6,9,10-tetrahydro-4H-isoxazolo[3,4-c]pyrido[4′,3′:3,4]pyrazolo[1,5-a]azepine-11(12H)-carboxamide]: 9 nM.
In the case of `N#Cc1cc(NC(=O)N2CCc3nn4c(c3C2)-c2nocc2CC(O)C4)ccc1F` (centres unmarked) [Example 11, N-(3-Cyano-4-fluorophenyl)-5-hydroxy-5,6,9,10-tetrahydro-4H-isoxazolo[3,4-c]pyrido[4′,3′:3,4]pyrazolo[1,5-a]azepine-11(12H)-carboxamide], the concentration giving a half-maximal response (EC50) was 43 nM.
The same measure for `N#Cc1cc(NC(=O)N2CCn3nc4c(c3C2)-c2oncc2CCC4)ccc1F` [Example 33, N-(3-Cyano-4-fluorophenyl)-5,6,9,10-tetrahydro-4H-isoxazolo[5″,4″:3′,4′]-cyclohepta[1′,2′:3,4]pyrazolo[1,5-a]pyrazine-11(12H)-carboxamide]: 790 nM; for `CC1Cc2conc2-c2c3c(nn2C1)CCN(C(=O)Nc1ccc(F)c(C(F)(F)F)c1)C3` (centres unmarked) [Example 12, N-(4-Fluoro-3-(trifluoromethyl)phenyl)-5-methyl-5,6,9,10-tetrahydro-4H-isoxazolo[3,4-c]pyrido[4′,3′:3,4]pyrazolo[1,5-a]azepine-11(12H)-carboxamide]: 52 nM; for `O=C(Nc1ccc(F)c(C(F)(F)F)c1)N1CCn2nc3c(c2C1)-c1oncc1CCC3` [Example 34]: 440 nM.
In the case of `O=C(Nc1ccc(F)c(C(F)(F)F)c1)N1CCc2nn3c(c2C1)-c1nocc1CC(CO)C3` (centres unmarked) [Example 4, N-(4-Fluoro-3-(trifluoromethyl)phenyl)-5-(hydroxymethyl)-5,6,9,10-tetrahydro-4H-isoxazolo[3,4-c]pyrido[4′,3′:3,4]pyrazolo[1,5-a]azepine-11(12H)-carboxamide], the EC50 was determined as 57 nM.
The same measure for `C=C1Cc2cnoc2-c2c3c(nn2C1)CCN(C(=O)Nc1ccc(F)c(C(F)(F)F)c1)C3` [Example 10, N-(4-Fluoro-3-(trifluoromethyl)phenyl)-5-methylene-5,6,9,10-tetrahydro-4H-isoxazolo[5,4-c]pyrido[4′,3′:3,4]pyrazolo[1,5-a]azepine-11(12H)-carboxamide]: 350 nM; for `O=C(Nc1ccc(F)c(C(F)(F)F)c1)N1CCn2nc3c(c2C1)-c1nocc1CCC3` [Example 36, N-(4-Fluoro-3-(trifluoromethyl)phenyl)-5,6,9,10-tetrahydro-4H-isoxazolo[3″,4″:3′,4′]cyclohepta[1′,2′:3,4]pyrazolo[1,5-a]pyrazine-11(12H)-carboxamide]: 180 nM; for `C=C1Cc2conc2-c2c3c(nn2C1)CCN(C(=O)Nc1ccc(F)c(C#N)c1)C3` [Example 1, N-(3-Cyano-4-fluorophenyl)-5-methylene-5,6,9,10-tetrahydro-4H-isoxazolo[3,4-c]pyrido[4′,3′:3,4]pyrazolo[1,5-a]azepine-11(12H)-carboxamide]: 64 nM.
Under `C=C1Cc2conc2-c2c3c(nn2C1)CCN(C(=O)Nc1ccc(F)c(C(F)(F)F)c1)C3` [Example 2, N-(4-Fluoro-3-(trifluoromethyl)phenyl)-5-methylene-5,6,9,10-tetrahydro-4H-isoxazolo[3,4-c]pyrido[4′,3′:3,4]pyrazolo[1,5-a]azepine-11(12H)-carboxamide] stands 75 nM; under `CC1Cc2conc2-c2c3c(nn2C1)CCN(C(=O)Nc1ccc(F)c(C#N)c1)C3` (centres unmarked) [Example 13, N-(3-Cyano-4-fluorophenyl)-5-methyl-5,6,9,10-tetrahydro-4H-isoxazolo[3,4-c]pyrido[4′,3′:3,4]pyrazolo[1,5-a]azepine-11(12H)-carboxamide], 52 nM.
The same measure for `O=C(Nc1ccc(F)c(Cl)c1)N1CCc2nn3c(c2C1)-c1oncc1CCC3` [Example 32, N-(3-Chloro-4-fluorophenyl)-5,6,9,10-tetrahydro-4H-isoxazolo[5,4-c]pyrido[4′,3′:3,4]pyrazolo[1,5-a]azepine-11(12H)-carboxamide]: 12 nM; for `N#Cc1cc(NC(=O)N2CCc3nn4c(c3C2)-c2ncccc2CCC4)ccc1F` [Example 27, N-(3-Cyano-4-fluorophenyl)-6,7,10,11-tetrahydro-5H-pyrido[2,3-c]pyrido[4′,3′:3,4]pyrazolo[1,5-a]azepine-12(13H)-carboxamide]: 170 nM.

Broadly, the EC50 is the midpoint of the concentration-response curve.
